Test results: US20260097022A1, “COMPOUNDS AND USES THEREOF” (Integrated Biosciences, Inc., priority 2023, published 2026)

Test system: etoposide-treated IMR-90 cells
Assay: Etoposide-induced senescence model, resazurin cell viability (screen and dose-response)
Assay type: cell-based, human
Conditions: etoposide-induced senescence model; ratio of IC50 values between etoposide- and DMSO-treated IMR-90 fibroblasts
Protocol: Cell culture. Human lung fibroblast (IMR-90) cells were obtained from ATCC (CCL-186) and passaged less than 10 times (less than 30 population doublings) for all experiments described in this example, with the exception of high-passage cells used in the model of replicative senescence (see the section on Replicative senescence below). Cells were cultured in growth media comprising Eagle's Minimum Essential Medium (EMEM: ATCC 30-2003) supplemented with 10% fetal bovine serum (FBS: Thermo Fisher 16140071) and 1% penicillin-streptomycin (Thermo Fisher 15070063). Cells were incubated in a humidity-controlled incubator at 37° C., with 5% CO2. Cells were detached using trypsin-EDTA (0.05%; Gibco 25300120).
Etoposide-induced senescence. IMR-90 cells were cultured as described above. At between 30 to 50% confluence, the media was replaced with complete growth media containing vehicle (0.5% dimethyl sulfoxide: DMSO, MilliporeSigma D5879) or complete growth media containing 50 μM etoposide (prepared as a 1:200 dilution of a 10 mM stock solution in DMSO; etoposide, MilliporeSigma E1383). Cells were treated for 2 days, after which the media was replaced with fresh growth media and cells were allowed to recover for 4 days. Cells were then plated as described below.
Chemical screening. For all screening experiments. 99 μL of cells were plated into each well of a 96-well clear flat-bottom, black polystyrene tissue-culture-treated plate (Corning 3904) at a density of ˜10+ cells/well. Plates were incubated overnight for adhesion. The day after plating. 1 μL of each compound, prepared as either a 1 mM stock solution in DMSO (10 μM final concentration screen) or 0.1 mM stock solution in DMSO (1 μM final concentration screen), was added to each well using an Agilent Bravo liquid handler. A built-in slow mixing step involving aspirating and dispensing was used to enhance distribution of the added compounds in solution. Cells were incubated for 3 days, after which resazurin (MilliporeSigma R^7017) was added to each well to a final concentration of 0.15 mM. After an additional 1 day of incubation, the fluorescence excitation/emission at 550/590 nm was read using a SpectraMaxR M3 plate reader and manufacturer software (SoftMax Pro R 6). Experiments were performed in biological duplicate.
Three-fold serial dilutions of compound were prepared in DMSO, then added to cell plates (final concentration of DMSO. 1%). Cell viability was then assayed as detailed above, and resazurin fluorescence values were linearly interpolated with respect to values from empty and positive control (non-treatment) wells. Experiments were performed in biological duplicate each on two independent occasions. When possible, chemical stocks from commercial suppliers were used: econazole nitrate (Cayman Chemical 20223), artenimol (Cayman Chemical 19846), and ABT-263 (Cayman Chemical 11500) were from Cayman Chemical, and dehydrodeguelin was aliquoted from the screening library.
Calculation of cellular viability values in dose-response curves. […] For each sample, the fluorescence intensity value was normalized by the mean of two untreated control values. Cellular viability values are therefore indicated as fractions of the cellular viability of untreated controls. Vehicle (1% DMSO) control values are included in each dose-response curve. Experiments were performed in biological duplicate each on two independent occasions.
Calculation of baseline cellular viability values. […] Additionally, baseline cellular viability values were calculated for untreated cells at the start of the experiment. Resazurin was added to a final concentration of 0.15 mM on the day of seeding (corresponding to day 0 in FIG. 7).

Row | SMILES | Therapeutic Index (TI)
1 | CCOc1ccc(NC(=O)CSc2nc3ccc(N4C(=O)c5ccccc5C4=O)cc3s2)cc1 [compound 25] | +++ (compounds with a TI of >5 were labeled as +++)
2 | CCOc1ccccc1NC(=O)CSc1nc2ccc(NC(=O)c3ccccc3Cl)cc2s1 [compound 26] | +++ (compounds with a TI of >5 were labeled as +++)
3 | Cc1cccc(NC(=O)CSc2nc3ccc(NC(=O)c4ccccc4F)cc3s2)c1C [compound 27] | +++ (compounds with a TI of >5 were labeled as +++)
4 | COc1ccccc1NC(=O)CSc1nc2ccc(NC(=O)c3ccccc3OC)cc2s1 [compound 28] | +++ (compounds with a TI of >5 were labeled as +++)
5 | Cc1ccccc1C(=O)Nc1ccc2nc(SCC(=O)Nc3ccccc3F)sc2c1 [compound 29] | ++ (compounds with a TI of 1 to 5 were labelled as ++)
6 | COc1ccccc1C(=O)Nc1ccc2nc(SCC(=O)N3CCc4ccccc43)sc2c1 [compound 30] | ++ (compounds with a TI of 1 to 5 were labelled as ++)
7 | O=C(Nc1ccc2nc(SCC(=O)N3CCc4ccccc43)sc2c1)c1cccc(F)c1 [compound 31] | ++ (compounds with a TI of 1 to 5 were labelled as ++)
8 | CCc1cccc(CC)c1NC(=O)CSc1nc2ccc(NC(=O)c3cccc(C)c3)cc2s1 [compound 32] | ++ (compounds with a TI of 1 to 5 were labelled as ++)
9 | COc1ccc(C(=O)Nc2ccc3nc(SCC(=O)N4CCc5ccccc54)sc3c2)cc1 [compound 33] | ++ (compounds with a TI of 1 to 5 were labelled as ++)
10 | CCCCOc1ccc(NC(=O)CSc2nc3ccc(NC(=O)c4ccc(C)cc4)cc3s2)cc1 [compound 34] | ++ (compounds with a TI of 1 to 5 were labelled as ++)
11 | CCOc1ccc(C(=O)Nc2ccc3nc(SCC(=O)Nc4ccccc4C)sc3c2)cc1 [compound 35] | ++ (compounds with a TI of 1 to 5 were labelled as ++)
12 | Cc1ccc(C(=O)Nc2ccc3nc(SCC(=O)Nc4ccccc4)sc3c2)cc1 [compound 36] | ++ (compounds with a TI of 1 to 5 were labelled as ++)
13 | Cc1ccc(NC(=O)CSc2nc3ccc(NC(=O)c4ccccc4)cc3s2)cc1Cl [compound 37] | ++ (compounds with a TI of 1 to 5 were labelled as ++)
14 | CCOc1ccc(NC(=O)C(C)Sc2nc3ccc(NC(=O)c4ccccc4)cc3s2)cc1 (stereo not drawn) [compound 38] | ++ (compounds with a TI of 1 to 5 were labelled as ++)
15 | COc1ccccc1NC(=O)CSc1nc2ccc(NC(=O)c3ccc(C)cc3)cc2s1 [compound 39] | ++ (compounds with a TI of 1 to 5 were labelled as ++)
16 | CCOc1ccc(NC(=O)CSc2nc3ccc(NC(=O)c4ccccc4OC)cc3s2)cc1 [compound 40] | ++ (compounds with a TI of 1 to 5 were labelled as ++)
17 | CCOc1ccc(NC(=O)C(C)Sc2nc3ccc(NC(=O)c4ccc(OC)cc4)cc3s2)cc1 (stereo not drawn) [compound 41] | ++ (compounds with a TI of 1 to 5 were labelled as ++)
18 | O=C(CSc1nc2ccc(NC(=O)c3ccccc3Cl)cc2s1)Nc1ccccc1F [compound 42] | ++ (compounds with a TI of 1 to 5 were labelled as ++)
19 | CCOc1ccc(C(=O)Nc2ccc3nc(SCC(=O)Nc4cc(C)cc(C)c4)sc3c2)cc1 [compound 43] | ++ (compounds with a TI of 1 to 5 were labelled as ++)
20 | COc1ccccc1C(=O)Nc1ccc2nc(SCC(=O)Nc3c(C)cc(C)cc3C)sc2c1 [compound 44] | ++ (compounds with a TI of 1 to 5 were labelled as ++)
21 | COc1cccc(C(=O)Nc2ccc3nc(SCC(=O)N(C)c4ccccc4)sc3c2)c1 [compound 45] | ++ (compounds with a TI of 1 to 5 were labelled as ++)
22 | Cc1ccc(Cl)cc1NC(=O)CSc1nc2ccc(NC(=O)c3ccccc3C)cc2s1 [compound 46] | ++ (compounds with a TI of 1 to 5 were labelled as ++)
23 | CCOc1ccc(C(=O)Nc2ccc3nc(SCC(=O)Nc4ccc(C)cc4C)sc3c2)cc1 [compound 47] | ++ (compounds with a TI of 1 to 5 were labelled as ++)

Row | SMILES | Therapeutic Index (TI)
24 | COc1ccc(NC(=O)CSc2nc3ccc(NC(=O)c4cccc(F)c4)cc3s2)cc1 [compound 48] | ++ (compounds with a TI of 1 to 5 were labelled as ++)
25 | CCOc1ccc(C(=O)Nc2ccc3nc(SCC(=O)N(C)c4ccccc4)sc3c2)cc1 [compound 49] | ++ (compounds with a TI of 1 to 5 were labelled as ++)
26 | CCCCOc1ccc(NC(=O)CSc2nc3ccc(NC(=O)c4ccccc4Br)cc3s2)cc1 [compound 50] | ++ (compounds with a TI of 1 to 5 were labelled as ++)
27 | O=C(CSc1nc2ccc(NC(=O)c3ccc(F)cc3)cc2s1)Nc1cccc(Cl)c1 [compound 51] | ++ (compounds with a TI of 1 to 5 were labelled as ++)
28 | COc1ccc(NC(=O)CSc2nc3ccc(NC(=O)c4ccccc4C)cc3s2)cc1 [compound 52] | ++ (compounds with a TI of 1 to 5 were labelled as ++)
29 | COc1cccc(C(=O)Nc2ccc3nc(SCC(=O)Nc4ccccc4)sc3c2)c1 [compound 53] | ++ (compounds with a TI of 1 to 5 were labelled as ++)
30 | CCCCOc1ccc(NC(=O)CSc2nc3ccc(NC(=O)c4cccc5ccccc45)cc3s2)cc1 [compound 54] | ++ (compounds with a TI of 1 to 5 were labelled as ++)
31 | COc1ccc(NC(=O)CSc2nc3ccc(NC(=O)c4cccc(C)c4)cc3s2)cc1 [compound 55] | ++ (compounds with a TI of 1 to 5 were labelled as ++)
32 | Cc1ccc(C(=O)Nc2ccc3nc(SCC(=O)Nc4ccccc4F)sc3c2)cc1 [compound 56] | ++ (compounds with a TI of 1 to 5 were labelled as ++)
33 | COc1ccc(NC(=O)CSc2nc3ccc(NC(=O)c4ccccc4)cc3s2)cc1 [compound 57] | ++ (compounds with a TI of 1 to 5 were labelled as ++)
34 | Cc1cc(C)c(NC(=O)CSc2nc3ccc(NC(=O)c4ccccc4Cl)cc3s2)c(C)c1 [compound 58] | ++ (compounds with a TI of 1 to 5 were labelled as ++)
35 | COc1ccccc1C(=O)Nc1ccc2nc(SCC(=O)Nc3c(C)cccc3C)sc2c1 [compound 59] | ++ (compounds with a TI of 1 to 5 were labelled as ++)
36 | COc1ccc(C(=O)Nc2ccc3nc(SCC(=O)Nc4ccccc4C)sc3c2)cc1 [compound 60] | ++ (compounds with a TI of 1 to 5 were labelled as ++)
37 | Cc1ccc(Cl)cc1NC(=O)CSc1nc2ccc(NC(=O)c3ccc(F)cc3)cc2s1 [compound 61] | ++ (compounds with a TI of 1 to 5 were labelled as ++)
38 | O=C(CSc1nc2ccc(NC(=O)c3ccc(Cl)cc3)cc2s1)Nc1ccc(F)cc1 [compound 62] | ++ (compounds with a TI of 1 to 5 were labelled as ++)
39 | COc1ccc(C(=O)Nc2ccc3nc(SCC(=O)Nc4ccccc4Cl)sc3c2)cc1 [compound 63] | ++ (compounds with a TI of 1 to 5 were labelled as ++)
40 | CCOc1ccc(C(=O)Nc2ccc3nc(SCC(=O)Nc4ccccc4Cl)sc3c2)cc1 [compound 64] | ++ (compounds with a TI of 1 to 5 were labelled as ++)
41 | CCC(Sc1nc2ccc(NC(=O)c3ccc(C)cc3)cc2s1)C(=O)Nc1ccc(Cl)cc1 (stereo not drawn) [compound 65] | ++ (compounds with a TI of 1 to 5 were labelled as ++)
42 | COc1ccc(NC(=O)CSc2nc3ccc(NC(=O)c4ccccc4Cl)cc3s2)cc1 [compound 66] | ++ (compounds with a TI of 1 to 5 were labelled as ++)
43 | COC(=O)c1ccccc1NC(=O)CSc1nc2ccc(NC(=O)c3ccccc3C)cc2s1 [compound 67] | ++ (compounds with a TI of 1 to 5 were labelled as ++)
44 | O=C(CSc1nc2ccc(NC(=O)c3ccccc3)cc2s1)Nc1cccc(C(F)(F)F)c1 [compound 68] | ++ (compounds with a TI of 1 to 5 were labelled as ++)
45 | CCc1cccc(CC)c1NC(=O)CSc1nc2ccc(NC(=O)c3ccccc3C)cc2s1 [compound 69] | ++ (compounds with a TI of 1 to 5 were labelled as ++)
